This note sets out measurements from ChEMBL document CHEMBL3046947, “Synthesis and antimicrobial activity studies of some novel substituted phenylhydrazono-1H-tetrazol-5-yl-acetonitriles” (2010).

Experiment [1] relates to Bacillus cereus. Kind of experiment: Antibacterial activity against Bacillus cereus RSKK 863 at 30 ug/disk after 24 hr by agar well diffusion method. It is filed as functional. The note with it: for zone of inhibition at 30 µg/disc: RSKK 863, 24 h, read-out: IZ.
Experiment [2] concerns Escherichia coli. Kind of experiment: Antibacterial activity against Escherichia coli ATCC 35218 at 30 ug/disk after 24 hr by agar well diffusion method. The format is functional, organism-based. Background: Agar diffusion results depend on both activity and mobility in agar.
Experiment [3] deals with Pseudomonas aeruginosa. Kind of experiment: Antibacterial activity against Pseudomonas aeruginosa […] at 30 ug/disk after 24 hr by agar well diffusion method. The format is functional.
For experiment [4], the system named is Escherichia coli. Kind of experiment: Antibacterial activity against Escherichia coli ATCC 35218 at 1 mg/ml after 24 hr by agar well diffusion method. It is filed as functional. The note with it: for zone of inhibition at 1000 µg/mL: ATCC 35218, 24 h, read-out: IZ.
Experiment [5] deals with Pseudomonas aeruginosa. Description: Antibacterial activity against Pseudomonas aeruginosa […] at 1 mg/ml after 24 hr by agar well diffusion method. The settings on record: for zone of inhibition at 1000 µg/mL: read-out: IZ. It is filed as functional.
Experiment [6] has as its system Bacillus cereus. Kind of experiment: Antibacterial activity against Bacillus cereus RSKK 863 at 1 mg/ml after 24 hr by agar well diffusion method. The note with it: for zone of inhibition at 1000 µg/mL: RSKK 863, 24 h, read-out: IZ. It is filed as functional.
A further experiment concerns Staphylococcus aureus. Description: Antibacterial activity against Staphylococcus aureus TP32 clinical isolate at 1 mg/ml after 24 hr by agar well diffusion method. The format is functional. The settings on record: for zone of inhibition at 1000 µg/mL: TP32, 24 h, read-out: IZ.
For experiment [7], the system named is Bacillus cereus. Kind of experiment: Antibacterial activity against Bacillus cereus RSKK 863 at 15 ug/disk after 24 hr by agar well diffusion method. It is filed as functional. The settings on record: RSKK 863, 24 h, read-out: IZ.
For experiment [8], the system named is Escherichia coli. Kind of experiment: Antibacterial activity against Escherichia coli ATCC 35218 at 15 ug/disk after 24 hr by agar well diffusion method. It is filed as functional. The note with it: ATCC 35218, 24 h, read-out: IZ.
In experiment [9] the test system is Pseudomonas aeruginosa. Description: Antibacterial activity against Pseudomonas aeruginosa […] at 15 ug/disk after 24 hr by agar well diffusion method. It is filed as functional, organism-based.
The test system of experiment [10] is Escherichia coli. Description: Antibacterial activity against Escherichia coli ATCC 35218 at 10 ug/disk after 24 hr by agar well diffusion method. It is filed as functional. The settings on record: ATCC 35218, 24 h, read-out: IZ.
In experiment [11] the test system is Bacillus cereus. Description: Antibacterial activity against Bacillus cereus RSKK 863 at 10 ug/disk after 24 hr by agar well diffusion method. It is filed as functional. The note with it: RSKK 863, 24 h, read-out: IZ.
For experiment [12], the system named is Pseudomonas aeruginosa. Kind of experiment: Antibacterial activity against Pseudomonas aeruginosa […] at 10 ug/disk after 24 hr by agar well diffusion method. It is filed as functional, organism-based.
For experiment [13], the system named is Pseudomonas aeruginosa. Kind of experiment: Antibacterial activity against Pseudomonas aeruginosa […] at 10 units/disk after 24 hr by agar well diffusion method. The format is functional, organism-based.
The subject of experiment [14] is Bacillus cereus. Description: Antibacterial activity against Bacillus cereus RSKK 863 at 10 units/disk after 24 hr by agar well diffusion method. It is filed as functional, organism-based.
In experiment [15] the test system is Escherichia coli. Description: Antibacterial activity against Escherichia coli ATCC 35218 at 10 units/disk after 24 hr by agar well diffusion method. It is filed as functional.

SMILES strings stand for the structures. Activity calls are given as the source filed them. The rule behind the calls is not given here.

As for `CN(C)[C@@H]1C(O)=C(C(N)=O)C(=O)[C@@]2(O)C(O)=C3C(=O)c4c(O)cccc4[C@@](C)(O)[C@H]3C[C@@H]12` [TETRACYCLINE], the zone of inhibition at 30 µg/disc in the experiment on Bacillus cereus [1] amounted to 17 mm; with Pseudomonas aeruginosa [3] (read-out: IZ), 16 mm. In the experiment with Escherichia coli [2], the “inhibition zone (IZ)” value was “inactive”.
Take `N#C/C(=N\Nc1ccccc1)c1nnn[nH]1`: the zone of inhibition at 1000 µg/mL in the experiment with Escherichia coli [4] worked out at 7 mm; in the experiment with Pseudomonas aeruginosa [5], 9 mm; with Bacillus cereus [6] it was 15 mm; in the experiment on Staphylococcus aureus it was 8 mm.
The like results for `N#C/C(=N\Nc1ccccc1F)c1nnn[nH]1` were, in that order, 14 mm, 4 mm, 19 mm and 5 mm.
On to `COc1ccccc1N/N=C(\C#N)c1nnn[nH]1`, for which the “inhibition zone (IZ)” value with Escherichia coli [4], in the experiment on Pseudomonas aeruginosa [5], in the experiment with Bacillus cereus [6] and with Staphylococcus aureus was “inactive” each time.
For the compound `CC[C@H]1OC(=O)[C@H](C)[C@@H](O[C@H]2C[C@@](C)(OC)[C@@H](O)[C@H](C)O2)[C@H](C)[C@@H](O[C@@H]2O[C@H](C)C[C@H](N(C)C)[C@H]2O)[C@](C)(O)C[C@@H](C)C(=O)[C@H](C)[C@@H](O)[C@]1(C)O` [ERYTHROMYCIN], the zone of inhibition at 15 µg/disc amounted to 19 mm in the experiment with Bacillus cereus [7] and 11 mm in the experiment with Escherichia coli [8]. Besides, the “inhibition zone (IZ)” value in the experiment with Pseudomonas aeruginosa [9] was “inactive”.
Consider `N#C/C(=N\Nc1ccc(F)cc1)c1nnn[nH]1`, for which the zone of inhibition at 1000 µg/mL in the experiment on Escherichia coli [4] came out at 11 mm; with Pseudomonas aeruginosa [5], 8 mm; in the experiment on Bacillus cereus [6], 19 mm; in the experiment with Staphylococcus aureus it was 10 mm.
For the compound `CN[C@H](CC(C)C)C(=O)N[C@H]1C(=O)N[C@@H](CC(N)=O)C(=O)N[C@H]2C(=O)N[C@H]3C(=O)N[C@H](C(=O)N[C@H](C(=O)O)c4cc(O)cc(O)c4-c4cc3ccc4O)[C@H](O)c3ccc(c(Cl)c3)Oc3cc2cc(c3O[C@@H]2O[C@H](CO)[C@@H](O)[C@H](O)[C@H]2O[C@H]2C[C@](C)(N)[C@H](O)[C@H](C)O2)Oc2ccc(cc2Cl)[C@H]1O` [VANCOMYCIN], the zone of inhibition at 30 µg/disc in the experiment on Bacillus cereus [1] was 17 mm. In addition, the “inhibition zone (IZ)” value in the experiment with Escherichia coli [2] and in the experiment with Pseudomonas aeruginosa [3] was “inactive” each time.
With `N#C/C(=N\Nc1ccccc1Cl)c1nnn[nH]1`, the “inhibition zone (IZ)” value with Escherichia coli [4] is “inactive”. Besides, the zone of inhibition at 1000 µg/mL in the experiment with Pseudomonas aeruginosa [5] worked out at 10 mm; in the experiment with Bacillus cereus [6], 5 mm; in the experiment on Staphylococcus aureus, 7 mm.
With `COc1ccc(N/N=C(\C#N)c2nnn[nH]2)cc1`, the zone of inhibition at 1000 µg/mL in the experiment on Escherichia coli [4] was 10 mm; with Bacillus cereus [6], 7 mm. Moreover, the “inhibition zone (IZ)” value in the experiment on Pseudomonas aeruginosa [5] and in the experiment on Staphylococcus aureus was “inactive” throughout.
On to `N#C/C(=N\Nc1ccc(Cl)cc1)c1nnn[nH]1`, for which the zone of inhibition at 1000 µg/mL in the experiment on Escherichia coli [4] came to 10 mm; with Pseudomonas aeruginosa [5], 8 mm; with Bacillus cereus [6] it was 21 mm; in the experiment on Staphylococcus aureus, 6 mm.
Take `N#C/C(=N\Nc1ccccc1Br)c1nnn[nH]1`: the zone of inhibition at 1000 µg/mL in the experiment on Escherichia coli [4] came to 7 mm; in the experiment with Pseudomonas aeruginosa [5] it was 3 mm; in the experiment on Bacillus cereus [6], 12 mm. The “inhibition zone (IZ)” value in the experiment on Staphylococcus aureus was “inactive”.
Take `N#C/C(=N\Nc1ccc(I)cc1)c1nnn[nH]1`: the zone of inhibition at 1000 µg/mL in the experiment on Escherichia coli [4] was 7 mm; with Pseudomonas aeruginosa [5] it was 9 mm; in the experiment with Bacillus cereus [6], 10 mm; with Staphylococcus aureus, 8 mm.
The matching figures for `Cc1ccc(N/N=C(\C#N)c2nnn[nH]2)cc1`: 10 mm, 8 mm, 20 mm and 8 mm.
The like results for `N#C/C(=N\Nc1ccccc1I)c1nnn[nH]1` were, in that order, 7 mm, 5 mm, 17 mm and 3 mm.
For the compound `N#C/C(=N\Nc1ccccc1[N+](=O)[O-])c1nnn[nH]1`, the zone of inhibition at 1000 µg/mL with Escherichia coli [4] stood at 7 mm; with Pseudomonas aeruginosa [5] it was 4 mm; in the experiment with Bacillus cereus [6], 10 mm; in the experiment on Staphylococcus aureus, 4 mm.
For `OC(Cn1cncn1)(Cn1cncn1)c1ccc(F)cc1F`, the “inhibition zone (IZ)” value in the experiment on Bacillus cereus [1], in the experiment on Escherichia coli [2] and in the experiment with Pseudomonas aeruginosa [3] was “inactive” throughout.
For `Cc1ccccc1N/N=C(\C#N)c1nnn[nH]1`, the zone of inhibition at 1000 µg/mL in the experiment on Escherichia coli [4] stood at 10 mm; in the experiment on Pseudomonas aeruginosa [5], 5 mm; with Bacillus cereus [6], 20 mm; in the experiment with Staphylococcus aureus it was 4 mm.
For `CC1(C)S[C@@H]2[C@H](NC(=O)[C@H](N)c3ccccc3)C(=O)N2[C@H]1C(=O)O` [AMPICILLIN], the results for the zone of inhibition at 10 µg/disc in the experiment on Escherichia coli [10] and in the experiment with Bacillus cereus [11] were 9 mm and 20 mm, respectively. In addition, the “inhibition zone (IZ)” value in the experiment with Pseudomonas aeruginosa [12] is “inactive”.
For `CC1(C)S[C@@H]2[C@H](NC(=O)Cc3ccccc3)C(=O)N2[C@H]1C(=O)O` [PENICILLIN G], the “inhibition zone (IZ)” value in the experiment on Pseudomonas aeruginosa [13] and with Bacillus cereus [14] was “inactive” in each case. Also, the “inhibition zone (IZ)” value in the experiment with Escherichia coli [15] turned out to be 17 mm.
As to `N#C/C(=N\Nc1ccc([N+](=O)[O-])cc1)c1nnn[nH]1`, the zone of inhibition at 1000 µg/mL was found to be 10 mm with Escherichia coli [4], 5 mm in the experiment with Pseudomonas aeruginosa [5], 11 mm in the experiment on Bacillus cereus [6] and 3 mm in the experiment on Staphylococcus aureus.
The like results for `N#C/C(=N\Nc1ccc(Br)cc1)c1nnn[nH]1` were, in that order, 14 mm, 8 mm, 20 mm and 6 mm.
